Consider two compounds from patent US20250040548A1, “Herbicidal compositions comprising saflufenacil” (BASF SF, priority 2023, published 2025).

The subject of one experiment is DIGIN. In words: Post-emergence application in field trials (Examples 2 and 3). In kind it is in vivo, Digitaria insularis. On the procedure:
(§1) In the examples below, using the method of S. R. Colby (1967) “Calculating synergistic and antagonistic responses of herbicide combinations”, Weeds 15, p. 22ff., the value E, which is expected if the activity of the individual active compounds is only additive, was calculated.
(§2) [formula] • where • X=percent activity using active herbicide A at an application rate a; • Y=percent activity using active saflufenacil at an application rate b; • E=expected activity (in %) by A+B at application rates a+b.
(§3) If the value found experimentally is higher than the value E calculated according to Colby, a synergistic effect is present.
(§4) On field test sites, natural weed infestation or seeded weeds were treated post-emergence of the weeds.
(§5) For the post emergence treatment, the weedy plants were treated as indicated below. The herbicidal compositions were, together with the adjuvant(s) as indicated, suspended or emulsified in water (200 l/ha unless indicated otherwise) as distribution medium and sprayed with commercial flat fan nozzles.
(§6) In the following experiments, the herbicidal activity for the individual herbicidal compositions (solo and mixture applications) was assessed the indicated days after treatment (DAT). The assessments for the damage on undesired weeds caused by the composition was carried out using a scale from 0 to 100%, compared to the untreated control plants. Here, 0 means no damage and 100 means complete destruction of the plants.
(§7) For the post emergence treatment, the weedy plants were treated as indicated below. The herbicidal compositions were, together with the adjuvant(s) as indicated, suspended or emulsified in water (200 I/ha unless indicated otherwise) as distribution medium and sprayed with commercial flat fan nozzles.

A further experiment deals with DIGSA. The experiment is described as above. In kind it is in vivo, Digitaria sanguinales. As for the experimental part: as §1, §2, §3, §4, §5, §6, §7
In a further experiment the test system is ERICA. In words: Post-emergence application in greenhouse trials. In kind it is in vivo, Erigeron canadensis. The conditions noted are these: 21 DAT, growth stage 31, saflufenacil as commercial 342 g/l SC formulation. On the procedure: as §1, §2, §3
The culture containers used were plastic pots containing loamy sand with approximately 3.0% of humus as substrate. The seeds of the test plants were sown separately for each species.
For the post-emergence treatment, the test plants were grown to a plant height of from 3 to 15 cm, depending on the plant habit, and only then treated with the active compounds which had been suspended or emulsified in water. To this end, the test plants were either sown directly, and grown in the same containers, or they were first grown separately as seedlings and transplanted into the test containers a few days prior to treatment.
Depending on the species, the plants were kept at 10-25° C. and 20-35° C., respectively.
The test period extended over 2 to 4 weeks. During this time, the plants were tended and their response to the individual treatments was evaluated.
Evaluation was carried out using a scale from 0 to 100. 100 means no emergence of the plants, or complete destruction of at least the above-ground parts, and 0 means no damage or normal course of growth. A good herbicidal activity is given at values of at least 70, and very good herbicidal activity is given at values of at least 85.
Unless indicated otherwise, herbicide A and saflufenacil were formulated (50 g/I) and applied with addition of 1% MSO (methylated seed oil) as adjuvant. In the greenhouse trials, the solvent used was water (200 I/ha).

The subject of the next experiment is POAAN. In words: Post-emergence application in field trials (Examples 2 and 3). In kind it is in vivo, Poa annua. On the procedure: as §1, §2, §3, §4, §5, §6, §7

As to `CC(C)N(C)S(=O)(=O)NC(=O)c1cc(-n2c(=O)cc(C(F)(F)F)n(C)c2=O)c(F)cc1Cl` [B-1, saflufenacil], the “% Herbicidal activity” value is recorded as 8% in the experiment with DIGIN (B-1 25 g ai/ha, 7 DAT, height 60-80 cm, field, 0.5% v/v MSO); 5% in the experiment with DIGIN (DIGIN, growth stage 65, height 40-50 cm, B-1 solo 25 g ai/ha, 21 DAT, 1% v/v MSO); 20% in the experiment on DIGSA (B-1 12.5 g ai/ha, 21 DAT, height 3-12 cm, 140 l/ha water, 1% MSO + 2.5% ammoniumsulfate); 23% in the experiment on DIGSA (B-1 25 g ai/ha, 19 DAT, growth stage 13-19, height 2.5-7.5 cm, 1% v/v MSO and 1% w/v ammoniumsulfate); 30% in the experiment on ERICA (B-1 3.12 g ai/ha); 18% in the experiment on POAAN (B-1 12.5 g ai/ha, 21 DAT, growth stage 55-65, height 10-15 cm, field, 140 l/ha water, 1% MSO + 2.5% ammoniumsulfate). Also, in the experiment on POAAN (POAAN, height 2.5-4 cm, B-1 solo 25 g ai/ha, 7 DAT, 1% v/v MSO), the “% Herbicidal activity” value is recorded as 12%.

For `CCOC(=O)COc1ccccc1Oc1nc(-n2c(=O)cc(C(F)(F)F)n(C)c2=O)c(F)cc1Cl` [A-1, ethyl 2-[2-[[3-chloro-5-fluoro-6-[3-methyl-2,6-dioxo-4-(trifluoromethyl)pyrimidin-1-yl]-2-pyridyl]oxy]phenoxy]acetate], the “% Herbicidal activity” value in the experiment with DIGIN (A-1 50 g ai/ha, 7 DAT, height 60-80 cm, field, 0.5% v/v MSO) is 70%; with DIGIN (DIGIN, growth stage 65, height 40-50 cm, A-1 solo 30 g ai/ha, 21 DAT, 1% v/v MSO), 53%; in the experiment on DIGSA (A-1 12.5 g ai/ha, 19 DAT, growth stage 13-19, height 2.5-7.5 cm, 1% v/v MSO and 1% w/v ammoniumsulfate) it was 87%; in the experiment with DIGSA (A-1 12.5 g ai/ha, 21 DAT, height 3-12 cm, 140 l/ha water, 1% MSO + 2.5% ammoniumsulfate), 50%; in the experiment on ERICA (A-1 1.56 g ai/ha) it was 10%; in the experiment on ERICA (A-1 3.12 g ai/ha), 10%. The “% Herbicidal activity” value in the experiment on ERICA (A-1 6.25 g ai/ha) is recorded as 30%; with POAAN (A-1 12.5 g ai/ha, 21 DAT, growth stage 55-65, height 10-15 cm, field, 140 l/ha water, 1% MSO + 2.5% ammoniumsulfate) it was 33%; in the experiment on POAAN (POAAN, height 2.5-4 cm, A-1 solo 12.5 g ai/ha, 7 DAT, 1% v/v MSO), 83%; in the experiment with POAAN (POAAN, height 2.5-4 cm, A-1 solo 25 g ai/ha, 7 DAT, 1% v/v MSO), 88%.
